Each compound was assayed against Voltage-dependent L-type calcium channel subunit alpha-1C (Cavia porcellus, UniProt O35505) (assay: Antagonist activity at Cavia porcellus albino (guinea pig) calcium channel assessed as inhibition of KCl-induced ileal longitudinal smooth muscle contraction).
Sequence of Voltage-dependent L-type calcium channel subunit alpha-1C (O35505 whole entry): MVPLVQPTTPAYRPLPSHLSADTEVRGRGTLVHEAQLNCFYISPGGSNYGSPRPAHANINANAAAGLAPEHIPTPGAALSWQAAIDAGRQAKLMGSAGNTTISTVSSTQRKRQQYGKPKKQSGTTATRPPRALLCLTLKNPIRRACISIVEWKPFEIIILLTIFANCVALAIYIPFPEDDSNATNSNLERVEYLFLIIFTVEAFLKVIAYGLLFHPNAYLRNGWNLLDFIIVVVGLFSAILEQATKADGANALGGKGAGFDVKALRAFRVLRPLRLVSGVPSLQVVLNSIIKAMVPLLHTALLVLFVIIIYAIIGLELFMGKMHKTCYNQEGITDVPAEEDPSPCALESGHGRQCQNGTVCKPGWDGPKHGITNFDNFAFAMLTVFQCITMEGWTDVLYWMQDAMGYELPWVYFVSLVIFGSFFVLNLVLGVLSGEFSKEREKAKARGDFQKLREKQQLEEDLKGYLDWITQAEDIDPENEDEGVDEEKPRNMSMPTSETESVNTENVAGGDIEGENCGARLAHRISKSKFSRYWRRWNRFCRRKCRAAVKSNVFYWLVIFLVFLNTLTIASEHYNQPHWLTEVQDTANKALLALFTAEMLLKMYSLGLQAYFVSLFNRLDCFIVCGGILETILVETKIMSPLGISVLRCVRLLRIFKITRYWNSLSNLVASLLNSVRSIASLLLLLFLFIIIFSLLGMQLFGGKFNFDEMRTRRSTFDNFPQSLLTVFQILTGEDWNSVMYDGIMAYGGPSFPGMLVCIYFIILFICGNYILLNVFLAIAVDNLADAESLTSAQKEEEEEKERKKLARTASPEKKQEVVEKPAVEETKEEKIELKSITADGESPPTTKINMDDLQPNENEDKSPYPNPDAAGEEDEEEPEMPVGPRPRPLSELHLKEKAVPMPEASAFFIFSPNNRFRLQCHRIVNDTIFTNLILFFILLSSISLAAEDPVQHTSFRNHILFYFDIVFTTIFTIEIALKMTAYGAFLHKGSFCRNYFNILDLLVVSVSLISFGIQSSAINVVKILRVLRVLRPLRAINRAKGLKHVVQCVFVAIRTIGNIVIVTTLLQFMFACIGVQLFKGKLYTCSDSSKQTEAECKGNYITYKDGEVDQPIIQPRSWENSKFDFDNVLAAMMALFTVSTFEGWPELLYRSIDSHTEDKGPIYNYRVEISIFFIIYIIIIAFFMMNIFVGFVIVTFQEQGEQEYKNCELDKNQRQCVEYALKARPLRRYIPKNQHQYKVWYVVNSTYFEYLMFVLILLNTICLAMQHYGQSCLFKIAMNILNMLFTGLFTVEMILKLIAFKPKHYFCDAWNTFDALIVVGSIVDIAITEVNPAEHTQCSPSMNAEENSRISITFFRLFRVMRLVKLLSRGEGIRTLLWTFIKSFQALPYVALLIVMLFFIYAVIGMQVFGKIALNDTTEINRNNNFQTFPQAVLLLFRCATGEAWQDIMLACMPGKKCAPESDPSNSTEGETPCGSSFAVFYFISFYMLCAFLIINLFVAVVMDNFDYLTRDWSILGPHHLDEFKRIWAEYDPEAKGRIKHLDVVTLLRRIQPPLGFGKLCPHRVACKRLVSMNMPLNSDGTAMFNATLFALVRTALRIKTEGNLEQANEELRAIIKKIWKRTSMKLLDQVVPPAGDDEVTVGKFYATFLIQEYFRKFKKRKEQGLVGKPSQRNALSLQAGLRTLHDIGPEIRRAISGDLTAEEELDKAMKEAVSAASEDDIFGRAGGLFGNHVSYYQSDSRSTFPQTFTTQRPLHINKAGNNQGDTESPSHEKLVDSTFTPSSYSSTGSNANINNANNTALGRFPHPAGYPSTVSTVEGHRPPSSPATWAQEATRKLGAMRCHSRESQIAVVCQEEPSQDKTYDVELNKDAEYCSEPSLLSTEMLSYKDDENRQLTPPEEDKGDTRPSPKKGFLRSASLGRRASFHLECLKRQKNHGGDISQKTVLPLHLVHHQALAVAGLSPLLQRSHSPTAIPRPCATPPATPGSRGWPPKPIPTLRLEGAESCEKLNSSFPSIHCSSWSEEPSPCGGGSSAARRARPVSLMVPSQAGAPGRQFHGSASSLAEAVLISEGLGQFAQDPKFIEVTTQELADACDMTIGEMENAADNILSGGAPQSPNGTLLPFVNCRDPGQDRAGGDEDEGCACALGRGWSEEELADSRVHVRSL

Row | IC50 | SMILES
1 | 6.22 nM | CSc1ncc(C2C(C(=O)OCCCc3ccccc3)=C(C)NC(C)=C2C(=O)OC(C)C)n1Nc1ccccc1 (stereo not drawn)
2 | 2.29 nM | CCCOC(=O)C1=C(C)NC(C)=C(C(=O)OCCC)C1c1cnc(SC)n1Nc1ccccc1
3 | 6.71 nM | CSc1ncc(C2C(C(=O)OCC(C)C)=C(C)NC(C)=C2C(=O)OCC(C)C)n1Nc1ccccc1
4 | 1.69 nM | CCOC(=O)C1=C(C)NC(C)=C(C(=O)OCC)C1c1cnc(SC)n1Nc1ccccc1
5 | 2.16 nM | CSc1ncc(C2C(C(=O)OC(C)C)=C(C)NC(C)=C2C(=O)OC(C)C)n1Nc1ccccc1
6 | 2.79 nM | CSc1ncc(C2C(C(=O)OCCc3ccccc3)=C(C)NC(C)=C2C(=O)OCCc2ccccc2)n1Nc1ccccc1
7 | 425 nM | CSc1ncc(C2C(C(=O)OC3CCCC3)=C(C)NC(C)=C2C(=O)OC2CCCC2)n1Nc1ccccc1
8 | 3.54 nM | COC(=O)C1=C(C)NC(C)=C(C(=O)OC)C1c1cnc(SC)n1Nc1ccccc1
9 | 1.86 nM | CCOC(=O)C1=C(C)NC(C)=C(C(=O)OCc2ccccc2)C1c1cnc(SC)n1Nc1ccccc1 (stereo not drawn)
10 | 17.9 nM | COCCOC(=O)C1=C(C)NC(C)=C(C(=O)OCCOC)C1c1cnc(SC)n1Nc1ccccc1
11 | 3.22 nM | CCOC(=O)C1=C(C)NC(C)=C(C(=O)OC(C)C)C1c1cnc(SC)n1Nc1ccccc1 (stereo not drawn)
12 | 121 nM | CSc1ncc(C2C(C(=O)OC(C)(C)C)=C(C)NC(C)=C2C(=O)OC(C)(C)C)n1Nc1ccccc1
13 | 9.65 nM | COCCOC(=O)C1=C(C)NC(C)=C(C(=O)OC)C1c1cnc(SC)n1Nc1ccccc1 (stereo not drawn)
14 | 2.91 nM | CCOC(=O)C1=C(C)NC(C)=C(C(=O)OCCOC)C1c1cnc(SC)n1Nc1ccccc1 (stereo not drawn)
15 | 1.49 nM | CSc1ncc(C2C(C(=O)OCc3ccccc3)=C(C)NC(C)=C2C(=O)OCc2ccccc2)n1Nc1ccccc1
16 | 2.21 nM | COC(=O)C1=C(C)NC(C)=C(C(=O)OCc2ccccc2)C1c1cnc(SC)n1Nc1ccccc1 (stereo not drawn)
17 | 6.35 nM | COC(=O)C1=C(C)NC(C)=C(C(=O)OC(C)C)C1c1cnc(SC)n1Nc1ccccc1 (stereo not drawn)
18 | 465 nM | CSc1ncc(C2C(C(=O)OC3CCCCC3)=C(C)NC(C)=C2C(=O)OC2CCCCC2)n1Nc1ccccc1
19 | 2.4 nM | CCCOC(=O)C1=C(C)NC(C)=C(C(=O)OC)C1c1cnc(SC)n1Nc1ccccc1 (stereo not drawn)
20 | 3.15 nM | CSc1ncc(C2C(C(=O)OCCCc3ccccc3)=C(C)NC(C)=C2C(=O)OCCCc2ccccc2)n1Nc1ccccc1
21 | 68.2 nM | CSc1ncc(C2C(C(=O)OC(C)C)=C(C)NC(C)=C2C(=O)OC(C)(C)C)n1Nc1ccccc1 (stereo not drawn)
22 | 2.54 nM | CCOC(=O)C1=C(C)NC(C)=C(C(=O)OCCCc2ccccc2)C1c1cnc(SC)n1Nc1ccccc1 (stereo not drawn)
23 | 621 nM | CSc1ncc(C2C(C(=O)OCC3CCCCC3)=C(C)NC(C)=C2C(=O)OCC2CCCCC2)n1Nc1ccccc1
24 | 1.66 nM | CCOC(=O)C1=C(C)NC(C)=C(C(=O)OC)C1c1cnc(SC)n1Nc1ccccc1 (stereo not drawn)
25 | 56 nM | CSc1ncc(C2C(C(=O)OCC3CCCCC3)=C(C)NC(C)=C2C(=O)OC(C)C)n1Nc1ccccc1 (stereo not drawn)
26 | 53.4 nM | COCCOC(=O)C1=C(C)NC(C)=C(C(=O)OC(C)C)C1c1cnc(SC)n1Nc1ccccc1 (stereo not drawn)
27 | 7.24 nM | CSc1ncc(C2C(C(=O)OCc3ccccc3)=C(C)NC(C)=C2C(=O)OC(C)C)n1Nc1ccccc1 (stereo not drawn)
28 | 3.05 nM | COC(=O)C1=C(C)NC(C)=C(C(=O)OCCCc2ccccc2)C1c1cnc(SC)n1Nc1ccccc1 (stereo not drawn)

From ChEMBL document CHEMBL3045722, “Synthesis, calcium-channel blocking activity, and conformational analysis of some novel 1,4-dihydropyridines: application of PM3 and DFT computational methods” (Med Chem Res, 2012)
